Blank lines part the entries; values can stand above or below the molecule they belong to.
Assays:
[1] = Aqueous solubility measurements; type: physicochemical; settings: for Aqueous solubility: in water
Text: Aqueous solubility measurements were done on L-Se-methylselenocysteine and γ-L-glutamyl-L-Se-methylselenocysteine; The solubility of L-Se-methylselenocysteine was ca. 10% with dissolution occurring in two hours in water.

- melting point: 192 to 194 °C
Structure (SMILES): C[Se]CC[C@H](NC(=O)CC[C@H](N)C(=O)O)C(=O)O

Structure (SMILES): C[Se]C[C@H](N)C(=O)O [L-Se-methylselenocysteine, reference compound]
- Time for dissolution in water [1]: two hours
- Aqueous solubility [1]: ca. 10%

Structure (SMILES): C[Se]C[C@H](NC(=O)CC[C@H](N)C(=O)O)C(=O)O [γ-L-glutamyl-L-Se-methylselenocysteine, γ-L-glutamyl-Se-methyl-L-selenocysteine]
- Time for dissolution in water [1]: thirty minutes
- Aqueous solubility [1]: ca. 25%
- melting point: 159 to 161 °C

From patent US8193156B1, “Dipeptides incorporating selenoamino acids with enhanced bioavailability—synthesis, pharmaceutical and cosmeceutical applications thereof” (Sami Labs Ltd, priority 2006, dated 2012)
